Data on six molecules can be found in ChEMBL document CHEMBL2385071, “Synthesis and biological investigation of coumarin piperazine (piperidine) derivatives as potential multireceptor atypical antipsychotics” (J Med Chem, 2013).

Molecules are shown by their SMILES.

Data set [1] has as its target Voltage-gated inwardly rectifying potassium channel KCNH2 (Homo sapiens, UniProt Q12809).
Description: Inhibition of human ERG expressed in HEK293 cells by electrophysiology assay
The target in data set [2] is T1, 5-hydroxytryptamine receptor 2C (Rattus norvegicus, UniProt P08909).
T1 sequence (P08909 whole entry): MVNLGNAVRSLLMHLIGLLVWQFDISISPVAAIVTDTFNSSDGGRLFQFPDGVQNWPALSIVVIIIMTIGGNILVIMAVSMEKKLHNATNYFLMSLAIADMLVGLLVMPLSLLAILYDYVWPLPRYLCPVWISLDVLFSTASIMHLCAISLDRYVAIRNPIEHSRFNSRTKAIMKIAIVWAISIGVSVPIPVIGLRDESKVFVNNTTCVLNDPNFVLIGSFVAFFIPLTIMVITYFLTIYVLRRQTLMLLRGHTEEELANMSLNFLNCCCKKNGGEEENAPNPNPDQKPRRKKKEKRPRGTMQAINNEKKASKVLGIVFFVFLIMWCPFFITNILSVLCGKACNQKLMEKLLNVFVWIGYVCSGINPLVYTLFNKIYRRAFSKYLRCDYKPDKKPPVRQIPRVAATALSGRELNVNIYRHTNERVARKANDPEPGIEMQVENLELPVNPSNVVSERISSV
Kind of data set: biochemical.
Description: Displacement of [3H]mesulergine from 5HT2C receptor in rat cerebral cortex after 15 mins by liquid scintillation counting analysis

Data set [3] concerns the target T2, Adrenergic receptor alpha-1 (Rattus norvegicus, UniProt P15823+P23944+P43140).
T2 sequence (P15823 whole entry): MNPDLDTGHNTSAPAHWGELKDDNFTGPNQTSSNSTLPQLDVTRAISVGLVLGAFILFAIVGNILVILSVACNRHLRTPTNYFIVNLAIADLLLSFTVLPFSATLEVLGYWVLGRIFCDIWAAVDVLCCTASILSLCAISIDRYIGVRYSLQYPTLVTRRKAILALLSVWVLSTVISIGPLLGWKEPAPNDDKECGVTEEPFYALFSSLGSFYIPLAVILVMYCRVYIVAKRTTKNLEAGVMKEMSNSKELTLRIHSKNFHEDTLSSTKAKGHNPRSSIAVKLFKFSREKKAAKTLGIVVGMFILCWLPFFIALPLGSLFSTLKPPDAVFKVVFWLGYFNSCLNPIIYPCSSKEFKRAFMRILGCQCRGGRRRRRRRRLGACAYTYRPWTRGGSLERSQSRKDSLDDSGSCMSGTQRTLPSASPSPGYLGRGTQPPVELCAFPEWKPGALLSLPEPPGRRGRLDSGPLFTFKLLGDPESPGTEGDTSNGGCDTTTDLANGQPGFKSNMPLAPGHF
T2 sequence (P23944 whole entry): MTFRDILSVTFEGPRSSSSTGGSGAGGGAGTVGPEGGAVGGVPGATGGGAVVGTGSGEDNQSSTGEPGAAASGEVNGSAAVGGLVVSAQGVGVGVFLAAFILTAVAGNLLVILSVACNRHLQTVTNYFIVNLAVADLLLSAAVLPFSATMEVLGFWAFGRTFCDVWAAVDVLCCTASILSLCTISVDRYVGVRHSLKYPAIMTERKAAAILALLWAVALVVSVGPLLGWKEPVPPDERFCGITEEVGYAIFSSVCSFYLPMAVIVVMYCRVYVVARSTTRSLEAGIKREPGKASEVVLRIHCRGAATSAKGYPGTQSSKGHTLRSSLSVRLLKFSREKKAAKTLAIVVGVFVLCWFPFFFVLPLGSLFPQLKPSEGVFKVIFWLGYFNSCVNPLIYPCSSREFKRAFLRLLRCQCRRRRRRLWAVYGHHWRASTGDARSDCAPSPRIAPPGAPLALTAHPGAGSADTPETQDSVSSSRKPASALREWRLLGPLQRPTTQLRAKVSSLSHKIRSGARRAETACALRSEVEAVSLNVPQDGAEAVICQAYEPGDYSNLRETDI
T2 sequence (P43140 whole entry): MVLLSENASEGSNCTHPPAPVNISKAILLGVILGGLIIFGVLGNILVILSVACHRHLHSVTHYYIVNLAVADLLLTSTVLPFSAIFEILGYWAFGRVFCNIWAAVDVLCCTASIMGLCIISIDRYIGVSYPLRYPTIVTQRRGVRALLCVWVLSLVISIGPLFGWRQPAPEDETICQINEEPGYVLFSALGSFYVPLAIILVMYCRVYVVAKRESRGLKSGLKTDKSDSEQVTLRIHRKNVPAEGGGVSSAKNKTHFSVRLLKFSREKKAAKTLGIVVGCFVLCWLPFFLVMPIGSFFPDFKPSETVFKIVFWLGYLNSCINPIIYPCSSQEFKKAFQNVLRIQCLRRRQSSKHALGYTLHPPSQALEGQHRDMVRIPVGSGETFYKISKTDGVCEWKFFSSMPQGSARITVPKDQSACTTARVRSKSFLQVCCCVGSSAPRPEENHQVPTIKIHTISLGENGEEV
Description: Displacement of [3H]prazosin from alpha-1 adrenergic receptor in rat cerebral cortex after 60 mins by liquid scintillation counting analysis

In data set [4] the test system is Rattus norvegicus. Briefly: Toxicity in rat assessed as QT interval prolongation/cardiac liability at 5 to 60 mg/kg, po by electrophysiology assay. In kind it is organism-based. More on the design: dose 5-60 mg/kg, route oral. As to conditions: in vivo.
Data set [5] has as its system Rattus norvegicus. Briefly: Antipsychotic activity in po dosed rat assessed as reduction in conditioned avoidance response after 60 mins. The format is functional.
Data set [6] addresses 5-hydroxytryptamine receptor 2A (Homo sapiens, UniProt P28223). Briefly: Antagonist activity at 5HT2A receptor (unknown origin) expressed in CHOK1 cells coexpressing Galpha15 assessed as inhibition of agonist-induced response at 10 uM incubated for 60 mins in incubator followed by 15 mins at room temperature by FLIPR assay relative to control. In kind it is cell-based. To be noted: CHO-K1.

Data set [7] is described as follows: in vivo. As to conditions: mouse, po.
Description: Therapeutic Index, ratio of ED50 for catalepsy in mouse to ED50 for antipsychotic activity in po dosed mouse assessed as reduction in apomorphine-induced climbing behavior
For data set [8], the target named is T3, 5-hydroxytryptamine receptor 1A (Homo sapiens) (UniProt P08908).
T3 sequence (whole entry): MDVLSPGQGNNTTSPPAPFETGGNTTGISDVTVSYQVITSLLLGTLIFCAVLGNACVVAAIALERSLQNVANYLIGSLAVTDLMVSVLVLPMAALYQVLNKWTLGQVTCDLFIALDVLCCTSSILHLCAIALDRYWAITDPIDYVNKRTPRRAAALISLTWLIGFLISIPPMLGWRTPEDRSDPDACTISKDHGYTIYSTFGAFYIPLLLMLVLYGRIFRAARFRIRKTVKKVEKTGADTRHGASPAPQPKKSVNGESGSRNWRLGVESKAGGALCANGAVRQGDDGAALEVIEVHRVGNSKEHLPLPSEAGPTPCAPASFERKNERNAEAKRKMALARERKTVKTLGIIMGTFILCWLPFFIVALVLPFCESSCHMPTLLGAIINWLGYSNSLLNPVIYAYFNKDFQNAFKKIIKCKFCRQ
Kind of data set: Agonist activity at 5HT1A receptor (unknown origin) expressed in CHOK1 cells coexpressing Galpha15 at 10 uM by FLIPR assay relative to control. The format is cell-based. As to conditions: CHO-K1.

Data set [9] has as its target D(2) dopamine receptor (Homo sapiens, UniProt P14416). Kind of data set: Antagonist activity at dopamine D2 receptor (unknown origin) expressed in CHOK1 cells coexpressing Galpha15 assessed as inhibition of agonist-induced response at 10 uM incubated for 60 mins in incubator followed by 15 mins at room temperature by FLIPR assay relative to control. To be noted: CHO-K1. The format is cell-based.

Data set [10] is described as follows: Acute toxicity in mouse assessed as mortality after 24 hrs. In kind it is organism-based. As to conditions: in vivo.

Chain of Voltage-gated inwardly rectifying potassium channel KCNH2 (Q12809 whole entry): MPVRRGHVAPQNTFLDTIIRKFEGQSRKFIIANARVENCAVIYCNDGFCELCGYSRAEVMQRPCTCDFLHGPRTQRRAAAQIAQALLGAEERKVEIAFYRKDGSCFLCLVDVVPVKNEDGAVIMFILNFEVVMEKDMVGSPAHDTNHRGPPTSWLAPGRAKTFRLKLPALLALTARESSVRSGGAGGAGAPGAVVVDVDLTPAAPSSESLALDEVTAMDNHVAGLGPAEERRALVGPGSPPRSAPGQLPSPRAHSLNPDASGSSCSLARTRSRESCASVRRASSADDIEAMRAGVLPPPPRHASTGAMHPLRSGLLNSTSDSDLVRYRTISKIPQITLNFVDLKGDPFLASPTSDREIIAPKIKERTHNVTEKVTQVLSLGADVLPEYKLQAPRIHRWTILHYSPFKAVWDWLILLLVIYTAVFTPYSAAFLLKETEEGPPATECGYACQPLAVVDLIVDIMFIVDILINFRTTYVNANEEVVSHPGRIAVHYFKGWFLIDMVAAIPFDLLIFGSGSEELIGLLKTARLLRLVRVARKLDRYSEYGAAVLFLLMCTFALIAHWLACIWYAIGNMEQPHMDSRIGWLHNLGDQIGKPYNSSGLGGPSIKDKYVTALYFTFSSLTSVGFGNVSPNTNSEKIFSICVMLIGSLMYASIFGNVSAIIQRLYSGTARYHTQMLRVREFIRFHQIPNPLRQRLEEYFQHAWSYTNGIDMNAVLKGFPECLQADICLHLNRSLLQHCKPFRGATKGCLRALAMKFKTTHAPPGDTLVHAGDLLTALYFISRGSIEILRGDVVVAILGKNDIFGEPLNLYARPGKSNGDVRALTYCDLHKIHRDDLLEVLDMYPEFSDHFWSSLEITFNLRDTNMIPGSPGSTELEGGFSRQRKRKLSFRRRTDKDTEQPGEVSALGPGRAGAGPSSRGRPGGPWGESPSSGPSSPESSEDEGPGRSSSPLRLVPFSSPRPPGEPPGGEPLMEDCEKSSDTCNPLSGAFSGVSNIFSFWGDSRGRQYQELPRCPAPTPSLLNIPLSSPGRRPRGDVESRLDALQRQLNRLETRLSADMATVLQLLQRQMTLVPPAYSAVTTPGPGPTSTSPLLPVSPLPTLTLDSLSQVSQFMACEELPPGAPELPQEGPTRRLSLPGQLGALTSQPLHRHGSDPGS
Chain of 5-hydroxytryptamine receptor 2A (P28223 whole entry): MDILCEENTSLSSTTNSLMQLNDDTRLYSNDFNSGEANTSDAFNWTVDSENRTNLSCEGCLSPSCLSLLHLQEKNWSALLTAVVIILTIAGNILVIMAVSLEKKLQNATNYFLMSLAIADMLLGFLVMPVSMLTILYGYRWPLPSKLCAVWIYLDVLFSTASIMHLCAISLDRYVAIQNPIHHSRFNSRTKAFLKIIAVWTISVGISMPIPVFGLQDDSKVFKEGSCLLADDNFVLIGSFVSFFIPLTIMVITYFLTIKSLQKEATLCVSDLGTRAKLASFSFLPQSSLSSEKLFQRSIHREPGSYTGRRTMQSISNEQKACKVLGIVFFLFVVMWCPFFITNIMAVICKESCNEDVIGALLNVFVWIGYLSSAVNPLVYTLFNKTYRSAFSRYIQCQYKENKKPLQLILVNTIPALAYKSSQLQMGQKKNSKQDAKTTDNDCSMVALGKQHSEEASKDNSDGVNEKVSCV
Chain of D(2) dopamine receptor (P14416 whole entry): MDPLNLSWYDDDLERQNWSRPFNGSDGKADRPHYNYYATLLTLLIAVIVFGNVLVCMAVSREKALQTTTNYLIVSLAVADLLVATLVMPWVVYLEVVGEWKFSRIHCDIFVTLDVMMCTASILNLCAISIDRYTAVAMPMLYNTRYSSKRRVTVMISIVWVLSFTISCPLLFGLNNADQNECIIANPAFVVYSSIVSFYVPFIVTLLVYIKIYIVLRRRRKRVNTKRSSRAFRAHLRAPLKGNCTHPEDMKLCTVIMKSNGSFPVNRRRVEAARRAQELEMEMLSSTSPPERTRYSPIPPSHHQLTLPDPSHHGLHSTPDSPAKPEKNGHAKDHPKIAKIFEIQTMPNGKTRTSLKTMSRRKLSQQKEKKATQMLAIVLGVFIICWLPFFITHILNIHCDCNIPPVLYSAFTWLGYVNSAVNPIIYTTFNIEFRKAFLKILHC

With `Cc1cc(=O)oc2cc(OCCCCN3CCC(c4noc5cc(F)ccc45)CC3)ccc12`, the 50% inhibitory concentration (IC50) in data set [1] was determined as 159 nM. Moreover, the Ki in [2] turned out to be 11.9 nM; in [3], 15.8 nM.

`COc1ccccc1N1CCN(CCCCOc2ccc3c(C)cc(=O)oc3c2)CC1` displayed an IC50 in [1] of 31 nM. Further, the Ki in data set [2] amounted to 1000 nM; in [3], 6.1 nM.

`O=c1cc(-c2ccccc2)c2ccc(OCCCCN3CCC(c4noc5cc(F)ccc45)CC3)cc2o1`: the values for the Ki in [2] and in data set [3] were 256 nM and > 10000 nM, respectively.

As for `Cc1cc(=O)oc2c(C)c(OCCCCN3CCC(c4noc5cc(F)ccc45)CC3)ccc12`, 226 nM corresponded to half-maximal inhibition in [1] (IC50). Also, the Ki in data set [2] is 68.9 nM; in data set [3] it was 121.2 nM.

In data set [1], `Cc1c(C)c2ccc(OCCCCN3CCC(c4noc5cc(F)ccc45)CC3)cc2oc1=O` gave an IC50 of 195 nM. In addition, the Ki in data set [2] turned out to be 389 nM; in data set [3], 139.2 nM.

For the molecule `Cc1cc(=O)oc2c(Cl)c(OCCCCN3CCC(c4noc5cc(F)ccc45)CC3)ccc12`, the results for the Activity result in [4], in data set [5] and in [8] were “Non-toxic”, “Dose-dependent effect” and 9.9%, respectively. In addition, the ED50 in [5] (1 h) is 6.5 mg/kg. The inhibition in [6] worked out at 99.1%; in data set [9] it was 101%. The molecule further returned an IC50 in data set [1] of 1590 nM. The Ki came to 1700 nM in [2] and 2569.2 nM in [3]. The selectivity ratio in data set [7] is 215. Also, the LD50 at 24 h in data set [10] was > 2000 mg/kg.
